According to patent publication US20260378560A1, “APPROACHES TO DESIGNING AND PERFORMING COMPRESSED BIOLOGICAL EXPERIMENTS AND SYSTEMS FOR IMPLEMENTING THE SAME” (EXVIVO LABS INC., priority 2023, published 2026):

Experiments:
[1] = test system: MOLT-4; test: Cell viability (CellTiter Glo), compressed perturbation pools with informed pool design, MAX-based deconvolution, MOLT-4; conditions: for DRS: MOLT-4, None (measured individually), informed pool design table; for DRS from MAX-based deconvolution: MOLT-4, Samples, 7 Pick 3 informed perturbation pools;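 on all read-outs here: higher DRS means a larger drug effect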
Method: (§1) Total cell viability was measured for each sample using an ATP-based luminescence assay (i.e., CellTiter Glo). Each cancer drug was then screened at multiple concentrations ranging from one nM to ten μM in order to generate a dose-response curve and calculate a DRS for each cancer cell line.
(§2) Each cancer drug was cultured with target cells individually. At the end of the screen, samples were either analyzed individually or compressed into pools for analysis. The library was compressed alphabetically into ten cohorts, each of which contained seven cancer drugs present in three out of the seven pools, as shown in Table VII. Said another way, the screening platform 210 generated a “7 pick 3” compressed library by assigning the cancer drugs among different pools. […] The library was also compressed into ten cohorts with pools designed based on information known about each cancer drug, as shown in Table VIII. After cell viability measurement and DRS calculation, the DRS of each cancer drug in the samples generated based on the pools were deconvoluted and compared to the DRS for each cancer drug measured individually.
(§3) In parallel to the exemplary sample compression screen covered in Table VII, perturbations were compressed into pools and then screened. The pools were designed using drug class as a feature with two compression rules (or simply “rules”). The first rule required that drugs from the same class be separated into different cohorts (i.e., mutually exclusive groups of pools). […] A benefit of compressing perturbations is the ability to measure additive, antagonistic, and synergistic effects between drugs in the same pool. However, these effects can negatively impact deconvolution of individual drug effects. Therefore, combinations of drugs for which evidence of clinical toxicity exists can be assigned to different pools in accordance with an informed pooling operation. As new preclinical or clinical evidence of toxic combinations becomes available, the rules implemented by the screening platform 210—and more specifically, its algorithm for compressing members of a library—can be updated accordingly.
(§4) In MAX-based deconvolution, an assumption of neutrality between the compressed perturbations is made. In other words, the perturbation with the largest effect is assumed to be masking the effects, if any, of the other perturbations in the pool. For SUM- and MAX-based deconvolution, qualitative deconvolution is first performed to rank the perturbations in each pool based on size of expected effect. Qualitative deconvolution, as described above, ranks the perturbations in a pool from largest effect size to smallest effect size. The ranking is based on the overlap of each perturbation's unique subset of pools with the highest and lowest measured pools. The perturbation with the largest effect is expected to be present in the pools with the highest measured signal or corresponding metric (e.g., DRS), while the perturbation with the smallest effect is expected to be present in the pools with the lowest measured signal or corresponding metric (e.g., DRS).
(§5) For MAX-based deconvolution, the highest ranked perturbation in the rank order is first assigned an effect size based on the pool with the lowest measured signal or corresponding metric (e.g., DRS) that it is present in. Said another way, the screening platform 210 can identify the highest ranked perturbation in the rank order and then assign an effect size based on the measured signal or corresponding metric (e.g., DRS) of the “weakest” pool in which the highest ranked perturbation is included. The screening platform 210 can repeat this step for the next highest ranked perturbation, and so on until the measurements for each pool have been assigned to one of the perturbations. The effects for the remaining perturbations can be assigned a value of zero, since it is assumed that their effect is masked by the perturbation with the largest effect in each pool.

[2] = test system: MOLT-4; test: Cell viability (CellTiter Glo), library of cancer drugs, individual or sample compression with randomized (alphabetical) pools, MOLT-4; type: cell-based; conditions: for DRS: MOLT-4, None (measured individually); for DRS from deconvolution: MOLT-4, Samples, 7 Pick 3 randomized (alphabetical) sample pools
Method: as §1, §2
(§6) In SUM-based deconvolution, an assumption of additivity is used to quantify the individual effects of each perturbation on each target. Additivity implies that each perturbation effect on each target is positively contributing to the overall effect measured for that pool. This is an accurate assumption for certain experiments, such as when targets or samples are compressed. When targets are pooled—or when samples containing different targets are pooled—the effect of each perturbation on each individual target is diluted. In other words, each perturbation has an isolated effect on a target in culture, and the sum total of the isolated effects are measured when pooled. Therefore, SUM-based deconvolution breaks down the sum total measured for a pool and assigns estimated fractional effects to each compressed perturbation or target in the pool. The screening platform 210 used SUM-based deconvolution for all target and sample compression experiments described above.

[3] = test system: REH; test: Cell viability (CellTiter Glo), library of cancer drugs, individual or sample compression with randomized (alphabetical) pools, REH; type: cell-based; conditions: REH; for DRS: None (measured individually); for DRS from deconvolution: Samples, 7 Pick 3 randomized (alphabetical) sample pools
Method: as §1, §2, §6

[4] = test system: REH; test: Cell viability (CellTiter Glo), compressed perturbation pools with informed pool design, MAX-based deconvolution, REH; conditions: REH; for DRS: None (measured individually), informed pool design table; for DRS from MAX-based deconvolution: Samples, 7 Pick 3 informed perturbation pools;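 on all read-outs here: higher DRS means a larger drug effect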
Method: as §1, §2, §3, §4, §5

SMILES	DRS [1]	DRS from MAX-based deconvolution [1]	DRS [2]	DRS from deconvolution [2]	DRS [3]	DRS from deconvolution [3]	DRS [4]	DRS from MAX-based deconvolution [4]
FC(F)(F)c1ccc(CNc2ccc(Cc3c[nH]c4ncc(Cl)cc34)cn2)cn1 [Pexidartinib]	7.00	9.12	0.00	0.00	2.30	2.11	1.00	0.00
Cc1ccc(C(=O)Nc2ccc(CN3CCN(C)CC3)c(C(F)(F)F)c2)cc1C#Cc1cnc2cccnn12 [Ponatinib]	0.24	0.00	6.12	6.51	4.42	3.86	0.84	0.00
CNC(=O)c1cc(Oc2ccc(NC(=O)Nc3ccc(Cl)c(C(F)(F)F)c3)c(F)c2)ccn1 [Regorafenib]	3.95	4.25	5.79	5.22	6.99	7.23	2.85	2.97
CN(C)C(=O)c1cc2cnc(Nc3ccc(N4CCNCC4)cn3)nc2n1C1CCCC1 [Ribociclib]	9.01	11.35	0.24	0.00	0.84	0.00	12.67	14.44
N#CC[C@H](C1CCCC1)n1cc(-c2ncnc3[nH]ccc23)cn1 [Ruxolitinib]	0.00	0.00	1.60	1.74	0.00	0.00	0.60	0.00
Cn1cnc2c(F)c(Nc3ccc(Br)cc3Cl)c(C(=O)NOCCO)cc21 [Selumetinib]	2.74	3.41	0.40	0.00	0.00	0.00	3.91	4.43
Cc1c(C(=O)Nc2ccc(N3C[C@@H](C)O[C@@H](C)C3)nc2)cccc1-c1ccc(OC(F)(F)F)cc1 [Sonidegib]	1.79	0.00	2.50	2.47	2.40	2.42	0.79	3.57
CNC(=O)c1cc(Oc2ccc(NC(=O)Nc3ccc(Cl)c(C(F)(F)F)c3)cc2)ccn1 [Sorafenib]	0.88	0.00	0.33	0.25	0.53	0.44	1.78	0.00
CCN(CC)CCNC(=O)c1c(C)[nH]c(/C=C2\C(=O)Nc3ccc(F)cc32)c1C [Sunitinib]	2.60	0.00	0.56	0.50	0.06	0.00	3.10	0.00
CC/C(=C(\c1ccccc1)c1ccc(OCCN(C)C)cc1)c1ccccc1 [Tamoxifen]	0.74	0.00	1.12	1.09	3.12	3.01	0.14	0.00
C[C@@H]1CCN(C(=O)CC#N)C[C@@H]1N(C)c1ncnc2[nH]ccc12 [Tofacitinib]	2.96	0.00	0.00	0.00	0.20	0.00	3.15	4.06
CC(=O)Nc1cccc(-n2c(=O)n(C3CC3)c(=O)c3c(Nc4ccc(I)cc4F)n(C)c(=O)c(C)c32)c1 [Trametinib]	24.71	24.91	0.00	0.00	0.00	0.00	21.81	23.72
Cc1cc(Nc2ncnc3ccc(NC4=NC(C)(C)CO4)cc23)ccc1Oc1ccn2ncnc2c1 [Tucatinib]	0.80	0.00	0.00	0.00	0.30	0.21	0.91	0.00
Nc1cc(F)ccc1NC(=O)c1ccc(CNC(=O)/C=C/c2cccnc2)cc1 [Tucidinostat]	0.50	0.00	6.77	7.95	10.87	11.23	2.40	0.00
COc1cc2c(Nc3ccc(Br)cc3F)ncnc2cc1OCC1CCN(C)CC1 [Vandetanib]	2.19	2.51	3.01	3.12	3.01	2.79	7.39	9.02
CS(=O)(=O)c1ccc(C(=O)Nc2ccc(Cl)c(-c3ccccn3)c2)c(Cl)c1 [Vismodegib]	4.08	4.35	0.70	0.56	0.00	0.00	2.58	3.06
O=C(CCCCCCC(=O)Nc1ccccc1)NO [Vorinostat]	1.84	0.00	13.42	13.67	12.12	12.11	2.01	0.00
